Consider one molecule from patent publication US7348318B2, “α-Amino-N-(diaminophosphinyl)lactam derivatives” (priority 2002, dated 2008).

This data set has as its system ICR strain male mice (Crj:CD-1). Put plainly: Test for investigating the increase of leukocytes and the decrease of platelets in normal mice. The class given is in vivo. The procedure: ICR strain male mice (Crj:CD-1) aged 8 weeks were used in the test. The animals were divided into 5 groups of 3 to 4 animals each. The following were intravenously and repeatedly administered to the groups, respectively, for 5 days; a first group: physiological saline as solvent, a second group: the compound of Example 45 (hydrochloride of the compound of Example 1) (10 mg/kg/day), a third group: the compound of Example 45 (50 mg/kg/day), a fourth group: the compound of Example 45 (250 mg/kg/day), and a fifth group: sulphostin (WO 99/25719 and JP-A-2000-327689; (3S, PR)-3-amino-1-amino(sulfoamino)phosphinyl-2-piperidone) (50 mg/kg/day). On the day subsequent to the last day in the administration period, blood was drawn from the abdominal aorta under anesthesia and the number of leukocytes and the number of platelets were measured.

The mark [1] stands for this setting: normal mice, 50 mg/kg/day i.v. for 5 days, blood drawn day after last administration.

Turning to `N[C@H]1CCCN([P@@](N)(=O)NS(=O)(=O)O)C1=O` [sulphostin, (3S, PR)-3-amino-1-amino(sulfoamino)phosphinyl-2-piperidone, reference compound], for the setting “50 mg/kg/day, decreased”, the “number of platelets as compared with the control group” value is 73%. Also, under setting [1], the Number of platelets was 57.1 ± 5.1 ×10000/millimeter cube and the number of leukocytes is reported as 15 ± 5 ×100/millimeter cube.
